# Assay results from patent publication US20080145858A1, “DETECTION AND IDENTIFICATION OF TOXICANTS BY MEASUREMENT OF GENE […]” (priority 2003, published 2008).
# Marks after values point to notes of the source that are not given here.
# Tested on: Xenopus laevis cleavage stage embryos (stage 8)
# Test: Xenopus cDNA microarray, differential gene expression after PMA treatment during cleavage stage (Group I)
# Assay type: in vivo
# Conditions: for Normalization by Landmarks (1.6) / Normalization by all Data Points (1.3) / Ratio of Medians (Cy5/Cy3) First Spot / Ratio of Medians (Cy5/Cy3) Mean / Ratio of Medians (Cy5/Cy3) Second Spot / Normalized by Landmarks (1.59) / Normalized by all Data Points (1.28) / (CY3/CY5) by Landmarks (1.6) / (CY3/CY5) by all Data Points (1.3): PMA 100 ng/ml; for % increase of mRNA expression by Microarray analysis (NF by all data point): Stage 8
# Text: Specifically, the method and screen of the present invention function as follows. EST clones produced from Xenopus laevis unfertilized eggs were used in the present study with ˜1,200 EST clones from a 18,500 EST clone set selected for production of a Xenopus cDNA microarray. The Xenopus microarray was used to measure the effect of chemical treatment on Xenopus embryo gene regulation. The chemical treatment was a phorbol ester, PMA. Xenopus eggs were obtained from females induced for ovulation and fertilized in vitro. Control Xenopus laevis embryos were allowed to develop to stage 8 blastula or stage 15 neurula. Treated embryos were exposed to PMA during cleavage stage or during neurulation with end points of blastula (stage 8) or neurula (stage 15). Specifically, PMA 100 ng/ml was added to the incubation media during cleavage stages for evaluation in stage 8 embryo or PMA was added during neural induction for evaluation in stage 15 embryos. RNA extracted from the embryos was used to generate fluorescent cDNA probes for Xenopus microarray analyses to measure differential gene expression with and without the phorbol ester treatment. Analysis was performed using paired RNA samples to compare PMA-treated and untreated embryos: Group I measured the effects of PMA-treatment during the cleavage stage in stage 8 embryos and Group II measured the effects of PMA-treatment during neurulation in stage 15 embryos. Group III measured the change in gene expression between stage 8 and stage 15 embryos.
# cDNA fragments were obtained by PCR replication of Xenopus laevis unfertilized egg cDNA inserts, purified, quantitated and loaded onto glass chips by robotics. In addition to the selected ˜1,200 genes, 64 lambda Q gene, an internal control cDNA (Genomic Solutions, Inc., Ann Arbor, Mich.) was loaded on the chip. The insert DNA from ˜1,200 clones were PCR amplified using forward and reverse primers (GF.200 primers, Research Genetics, Huntsville, Ala.). A second PCR was carried out using 1 μl of the primary PCR (20 μl) for template. Excess dNTPs, polymerase and other PCR artifacts were removed from the secondary PCR reactions using Millipore Multiscreen plates (Millipore Corporation, Bedford, Mass.) using the standard protocol. The purity of the PCR products was assessed by electrophoresis and documented using an Alphalmager 1000 Digital Imaging System (Alpha Innotech Corporation, San Leandro, Calif.). The DNA obtained by PCR was quantitated using PicoGreen (Molecular Probes, Eugene, Oreg.). The DNA was denatured and arrayed onto amino-silane coated microscope slides (CMT-GAPS coated slides, Corning, Corning, N.Y.) using a Flexys robotic workstation (Genomic Solutions Inc.). The ˜1,200 PCR products were arrayed in duplicate on each slide and cross-linked. Each gene chip contained duplicate cDNA samples.
# Total RNA was prepared from embryos treated in three separate dishes per treatment group that were pooled. Total RNA was isolated from the frog embryos (1,200 embryos for each probe production) using TRIzol extraction (Gibco BRL, Grand Island, N.Y.) and Qiagen RNeasy kits (Qiagen, Valencia, Calif.). The ethanol precipitated RNA was resuspended in RNase-free water, quantitated with RiboGreen (Molecular Probes, Eugene, Oreg.). Total RNA was further purified using oligoTex mRNA maxi kit (Qiagen Co.) with the bound mRNA eluted with minimum volume of elution buffer and precipitated with ethanol. The recovery rate of mRNA by the ethanol precipitation method was ˜70%. Cy3- or Cy5-tagged probes were produced from an mRNA mixture (20 μl) of Xenopus mRNA (5 μg) and lambda Q gene mRNA (3.5 ng) reverse-transcribed with oligo(dT)18-22 primer and dNTPs and the reverse-transcribed cDNA was cross-linked with Cy3 or Cy5 as described in Clontech Atlas™ Glass Fluorescent Labeling kit manual (www.clontech.com). After hydrolysis of the RNA and purification of the probe (Centricon 50, Millipore, Bedford, Mass.), the cDNA in TE buffer was quantitated by absorbance at 260 nm. […]
# [1] = cleavage and neurulation stage embryos
# [2] = ras-related protein gene, stage 8
structure (smiles),measurement,setting,value
"CCCCCCCCCCCCCC(=O)O[C@@H]1[C@@H](C)[C@@]2(O)[C@@H](C=C(CO)C[C@]3(O)C(=O)C(C)=C[C@@H]23)[C@@H]2C(C)(C)[C@]12OC(C)=O [PMA, phorbol 12-myristate 12-acetate]",Normalization by Landmarks (1.6),"PBX0143D10 mRNA, stage 8",0.64
same,Normalization by all Data Points (1.3),"PBX0143D10 mRNA, stage 8",0.40
same,Ratio of Medians (Cy5/Cy3) First Spot,"PBX0143D10 mRNA, stage 8",0.22
same,Ratio of Medians (Cy5/Cy3) Mean,"PBX0143D10 mRNA, stage 8",0.31 ± 0.11
same,Ratio of Medians (Cy5/Cy3) Second Spot,"PBX0143D10 mRNA, stage 8",0.40
same,Normalized by Landmarks (1.59),"PBX0143E06 mRNA, stage 8",3.85
same,Normalized by all Data Points (1.28),"PBX0143E06 mRNA, stage 8",3.10
same,Ratio of Medians (Cy5/Cy3) First Spot,"PBX0143E06 mRNA, stage 8",2.92
same,Ratio of Medians (Cy5/Cy3) Mean,"PBX0143E06 mRNA, stage 8",2.42 ± 0.50
same,Ratio of Medians (Cy5/Cy3) Second Spot,"PBX0143E06 mRNA, stage 8",1.91
same,(CY3/CY5) by Landmarks (1.6),"PBX0144A09 mRNA, stage 8",6.45
same,(CY3/CY5) by all Data Points (1.3),"PBX0144A09 mRNA, stage 8",10.33
same,Normalization by Landmarks (1.6),"PBX0144A09 mRNA, stage 8",0.15
same,Normalization by all Data Points (1.3),"PBX0144A09 mRNA, stage 8",0.10
same,Ratio of Medians (Cy5/Cy3) First Spot,"PBX0144A09 mRNA, stage 8",0.06
same,Ratio of Medians (Cy5/Cy3) Mean,"PBX0144A09 mRNA, stage 8",0.07 ± 0.02 ^a
same,Ratio of Medians (Cy5/Cy3) Second Spot,"PBX0144A09 mRNA, stage 8",0.09
same,Normalized by Landmarks (1.59),"PBX0144C12 mRNA, stage 8",5.55
same,Normalized by all Data Points (1.28),"PBX0144C12 mRNA, stage 8",4.47
same,Ratio of Medians (Cy5/Cy3) First Spot,"PBX0144C12 mRNA, stage 8",4.75
same,Ratio of Medians (Cy5/Cy3) Mean,"PBX0144C12 mRNA, stage 8",3.49 ± 1.26
same,Ratio of Medians (Cy5/Cy3) Second Spot,"PBX0144C12 mRNA, stage 8",2.23
same,Normalized by Landmarks (1.59),"PBX0144E04 mRNA, stage 8",5.45
same,Normalized by all Data Points (1.28),"PBX0144E04 mRNA, stage 8",4.38
same,Ratio of Medians (Cy5/Cy3) First Spot,"PBX0144E04 mRNA, stage 8",3.67
same,Ratio of Medians (Cy5/Cy3) Mean,"PBX0144E04 mRNA, stage 8",3.42 ± 0.25
same,Ratio of Medians (Cy5/Cy3) Second Spot,"PBX0144E04 mRNA, stage 8",3.17
same,Normalized by Landmarks (1.59),"PBX0145A06 mRNA, stage 8",4.55
same,Normalized by all Data Points (1.28),"PBX0145A06 mRNA, stage 8",3.66
same,Ratio of Medians (Cy5/Cy3) First Spot,"PBX0145A06 mRNA, stage 8",2.27
same,Ratio of Medians (Cy5/Cy3) Mean,"PBX0145A06 mRNA, stage 8",2.86 ± 0.59
same,Ratio of Medians (Cy5/Cy3) Second Spot,"PBX0145A06 mRNA, stage 8",3.44
same,(CY3/CY5) by Landmarks (1.6),"PBX0145A10 mRNA, stage 8",1.93
same,(CY3/CY5) by all Data Points (1.3),"PBX0145A10 mRNA, stage 8",3.10
same,Normalization by Landmarks (1.6),"PBX0145A10 mRNA, stage 8",0.52
same,Normalization by all Data Points (1.3),"PBX0145A10 mRNA, stage 8",0.32
same,Ratio of Medians (Cy5/Cy3) First Spot,"PBX0145A10 mRNA, stage 8",0.28
same,Ratio of Medians (Cy5/Cy3) Mean,"PBX0145A10 mRNA, stage 8",0.25 ± 0.03
same,Ratio of Medians (Cy5/Cy3) Second Spot,"PBX0145A10 mRNA, stage 8",0.22
same,(CY3/CY5) by Landmarks (1.6),"PBX0145E05 mRNA, stage 8",5.43
same,(CY3/CY5) by all Data Points (1.3),"PBX0145E05 mRNA, stage 8",8.69
same,Normalization by Landmarks (1.6),"PBX0145E05 mRNA, stage 8",0.18
same,Normalization by all Data Points (1.3),"PBX0145E05 mRNA, stage 8",0.12
same,Ratio of Medians (Cy5/Cy3) First Spot,"PBX0145E05 mRNA, stage 8",0.11
same,Ratio of Medians (Cy5/Cy3) Mean,"PBX0145E05 mRNA, stage 8",0.09 ± 0.02
same,Ratio of Medians (Cy5/Cy3) Second Spot,"PBX0145E05 mRNA, stage 8",0.07
same,(CY3/CY5) by Landmarks (1.6),"PBX0145E09 mRNA, stage 8",2.76
same,(CY3/CY5) by all Data Points (1.3),"PBX0145E09 mRNA, stage 8",4.42
same,Normalization by Landmarks (1.6),"PBX0145E09 mRNA, stage 8",0.36
same,Normalization by all Data Points (1.3),"PBX0145E09 mRNA, stage 8",0.23
same,Ratio of Medians (Cy5/Cy3) First Spot,"PBX0145E09 mRNA, stage 8",0.16
same,Ratio of Medians (Cy5/Cy3) Mean,"PBX0145E09 mRNA, stage 8",0.17 ± 0.02
same,Ratio of Medians (Cy5/Cy3) Second Spot,"PBX0145E09 mRNA, stage 8",0.19
same,(CY3/CY5) by Landmarks (1.6),"PBX0145E10 mRNA, stage 8",2.85
same,(CY3/CY5) by all Data Points (1.3),"PBX0145E10 mRNA, stage 8",4.57
same,Normalization by Landmarks (1.6),"PBX0145E10 mRNA, stage 8",0.35
same,Normalization by all Data Points (1.3),"PBX0145E10 mRNA, stage 8",0.22
same,Ratio of Medians (Cy5/Cy3) First Spot,"PBX0145E10 mRNA, stage 8",0.21
same,Ratio of Medians (Cy5/Cy3) Mean,"PBX0145E10 mRNA, stage 8",0.17 ± 0.05
same,Ratio of Medians (Cy5/Cy3) Second Spot,"PBX0145E10 mRNA, stage 8",0.12
same,Normalized by Landmarks (1.59),"PBX0145H10 mRNA, stage 8",3.78
same,Normalized by all Data Points (1.28),"PBX0145H10 mRNA, stage 8",3.05
same,Ratio of Medians (Cy5/Cy3) First Spot,"PBX0145H10 mRNA, stage 8",2.90
same,Ratio of Medians (Cy5/Cy3) Mean,"PBX0145H10 mRNA, stage 8",2.38 ± 0.52
same,Ratio of Medians (Cy5/Cy3) Second Spot,"PBX0145H10 mRNA, stage 8",1.86
same,expression of gene of EST PBX0144A09,[1],highly down-regulated
same,"expression of genes of ESTs PBX0134G08, PBX0144C12, PBX0136C09, PBX0134H03, PBX0136F03, PBX0143E06 and PBX0137G06",[1],highly up-regulated
same,up-regulation of the 25 highly up-regulated Xenopus genes,"cleavage stage, treated vs untreated embryos, Table 1, Panel A",3-8 fold
same,% increase of mRNA expression by Microarray analysis (NF by all data point),gene PBX0135A08,270%^a % of control
same,% increase of mRNA expression by Microarray analysis (NF by all data point),gene PBX013409,380% of control
same,RAB-1A expression ratio,[2],2.10
same,RAB-9 expression,[2],down-regulated
same,RAP-1B expression,[2],down-regulated
same,Phosphatase 2A regulatory subunit expression (PBX0140D01),stage 8,3 fold
